The values that follow come from patent publication US11559490B2, “Pharmaceutical formulation” (Merck Patent GmbH, priority 2017, dated 2023).

Data set [1] in a line: Solubility of drug substance in water and simulated gastric fluids. It counts as physicochemical.
The test system of another data set is HCT116. The conditions noted are these: 150 mg/kg oral, 10 min prior to each 2 Gy fraction, 5 days (10 Gy). The procedure:
(§1) The therapeutic relevance of DNA-PK inhibition by the drug substance as such was investigated in vivo in combination with ionizing radiation (IR), a clinically established DSB-inducing treatment. The drug substance was tested for activity in six xenograft mouse models of human cancer. The models were chosen from different cancer indications (colon, lung, head and neck, pancreatic), and histological subtypes (adeno, squamous, large cell). Ionizing radiation was administered using a fractionated schedule of 2 Gy per day administered over five consecutive days (total radiation dose=10 Gy). […] 10 min prior to each fraction of radiation (ONC397-1-2AZ, ONC397-1-3AZ, ONC397-1-4AZ, ONC397-1-5AZ, ONC397-1-8AZ).
(§2) The radiotherapy enhancing effect was quantified across the tested models by the time to reaching 400% initial volume for the 150 mg/kg study arms. The resulting Kaplan-Meier plots were compared by the log-rank test.

The next data set relates to NCI-H460. Conditions: 150 mg/kg oral, 10 min prior to each 2 Gy fraction, 5 days (10 Gy). The protocol:
as §1, §2

The next data set deals with A549. The conditions noted are these: 150 mg/kg oral, 10 min prior to each 2 Gy fraction, 5 days (10 Gy). The protocol: as §1, §2
In data set [2] the test system is DNA-PK autophosphorylation in cancer cell lines. Conditions: cited from earlier work.
Data set [3] addresses DNA-dependent protein kinase (DNA-PK) (Homo sapiens, UniProt P78527). The conditions noted are these: cited from earlier work.
Data set [4] relates to six xenograft mouse models of human cancer. Kind of data set: Xenograft mouse models of human cancer, combination with ionizing radiation. It counts as in vivo. Conditions: all models, oral administration with fractionated radiation 2 Gy x 5. The procedure: as §1, §2
(In general: In xenograft studies the graft and the host belong to different species.)

In the case of `COc1ccc([C@@H](O)c2cc(-c3ncnc4cc(N5CCOCC5)ccc34)c(F)cc2Cl)nn1` [drug substance, (S)-[2-chloro-4-fluoro-5-(7-morpholin-4-yl-quinazolin-4-yl)phenyl]-(6-methoxy-pyridazin-3-yl)methanol], the “solubility in water and simulated gastric fluids” value in data set [1] is on record as “poor solubility”. Moreover, the “enhancement ratio (time to reaching 400% initial volume)” value in the data set with HCT116 stood at 1.5; in the data set with NCI-H460, 2.6; in the data set with A549, 1.5. In addition, the “inhibition of DNA-PK autophosphorylation” value in data set [2] is recorded as “potent inhibition”. Besides, in data set [3], the “inhibition of DNA-PK activity” value was “potent and selective inhibitor”. In data set [4], the “enhancement of the radiation effect” value was “strong enhancement of the radiation effect”.
